Data from patent US9296722B2, “Azolyl urea compounds and methods of use thereof” (Ambit Biosciences Corporation, priority 2010, dated 2016).

Key:
CSF1R (human) = target: T1, CSF1R (human) (Homo sapiens, UniProt P07333); experiment: Competition binding assay, CSF1R (human) Kd
T1 construct: made in house; host or cells: T7 phage display or HEK-293 cells (alternatives, not resolved per kinase)
Experimental: The liganded beads were blocked with excess biotin and washed with blocking buffer (SeaBlock (Pierce), 1% BSA, 0.05% Tween 20, 1 mM DTT) to remove unbound ligand and to reduce non-specific binding. […] Test compounds were prepared as 100× stocks in DMSO and diluted into the aqueous environment. Kds were determined using an eleven point threefold serial dilutions. DMSO or control compounds were was added to control assays lacking a test compound. […] The kinase concentration in the eluates was measured by quantitative PCR.

M-NFS-60 cells = experiment: M-NFS-60 cell proliferation assay; type: cell-based, mouse; parameters: CSF1R Cell Proliferation (M-NFS-60) IC50 (nM): scale not given here; conditions: 72 hours incubation, Alamar Blue, M-CSF-dependent cells; for IC50: Mus musculus, read-out: CSF1R Cell Proliferation (M-NFS-60) IC50
Experimental: In certain embodiments, the compounds disclosed herein are tested in an M-NFS-60 cell proliferation assay to determine their cellular potency against CSF-1R. M-NFS-60s are mouse monocytic cells that depend on the binding of the ligand M-CSF to its receptor, CSF-1R, to proliferate Inhibition of CSF-1R kinase activity will cause reduced growth and/or cell death. This assay assesses the potency of compounds as CSF-1R inhibitors by measuring the reduction of Alamar Blue reagent by viable cells. An exemplary assay is described in the Examples section.
The compounds disclosed herein were tested in an M-NFS-60 cell proliferation assay to determine their cellular potency against CSF1R. M-NFS-60s are mouse monocytic cells that depend on the binding of the ligand M-CSF to its receptor, CSF1R, to proliferate Inhibition of CSF1R kinase activity will cause reduced growth and/or cell death. This assay assesses the potency of compounds as CSF1R inhibitors by measuring the reduction of Alamar Blue reagent by viable cells.
On day one of the experiment, M-NFS-60 cells were maintained in RPMI complete medium (Omega Scientific) plus 10% FBS supplemented with 20 ng/mL of M-CSF (R&D Systems). 96-well TC-treated, flat bottom plates were seeded at 10,000 cell/well at a volume of 100 μL per well. The cells were cultured overnight at 37° C. under 5% CO2.
On day two, compounds were added to the cells at 9 different concentrations, with half-log intervals alongside a control reference compound serving as a positive control. Final DMSO concentration was kept at 0.5% for a final volume of 200 μL. The compounds were allowed to incubate with the cells for 72 hours at 37° C. under 5% CO2.
On day five of the experiment, 40 μl of Alamar Blue reagent was added to each well and allowed to incubate for 3 hours. Alamar Blue fluorescence was read using SoftMax Pro software at 560 nm (excitation) and 590 nm (emission). IC50s were generated as an average of duplicates and represents the concentration of test compound that achieves 50% inhibition of cellular proliferation compared to control.

[1] = target: kinase panel containing either 359 or 386 distinct kinases; experiment: Competition binding assay, selectivity score (S10) against a panel of kinases; conditions: compounds at 10 μM; fraction of kinases with percent of control less than 10
Experimental: Competition binding assays used herein were developed, validated and performed as described in Fabian et al., Nature Biotechnology 2005, 23, 329-336. Kinases were produced as fusions to T7 phage (See, Fabian et al. or WO04/015142) or alternatively, the kinases were expressed in HEK-293 cells and subsequently tagged with DNA for PCR detection (See, WO08/005,310). […] The liganded beads were blocked with excess biotin and washed with blocking buffer (SeaBlock (Pierce), 1% BSA, 0.05% Tween 20, 1 mM DTT) to remove unbound ligand and to reduce non-specific binding. […] Test compounds were prepared as 100× stocks in DMSO and diluted into the aqueous environment. Kds were determined using an eleven point threefold serial dilutions. DMSO or control compounds were was added to control assays lacking a test compound. Primary screen assays were performed in polypropylene 384-well plates in a final volume of 20-40 μL, while Kd determinations were performed in polystyrene 96-well plates in a final volume of […]. […] The kinase concentration in the eluates was measured by quantitative PCR.
A selectivity score (S10) is a quantitative measure of selectivity of a compound against a panel of kinases. An S10 was calculated for a compound by dividing the number of kinases found to have a percent of control (DMSO) less than 10 by the total number of distinct kinases tested (excluding mutant variants). Percent of control (POC) is calculated by subtracting the signal of the control compound
(POC=0) from the signal of the test compound and dividing the outcome by the signal of DMSO (POC=100) minus the signal of the control compound. For the compounds disclosed herein, S10 scores were obtained by testing the compounds at 10 μM concentration in a kinase panel containing either 359 or 386 distinct kinases.

T1 sequence (P07333 20-972): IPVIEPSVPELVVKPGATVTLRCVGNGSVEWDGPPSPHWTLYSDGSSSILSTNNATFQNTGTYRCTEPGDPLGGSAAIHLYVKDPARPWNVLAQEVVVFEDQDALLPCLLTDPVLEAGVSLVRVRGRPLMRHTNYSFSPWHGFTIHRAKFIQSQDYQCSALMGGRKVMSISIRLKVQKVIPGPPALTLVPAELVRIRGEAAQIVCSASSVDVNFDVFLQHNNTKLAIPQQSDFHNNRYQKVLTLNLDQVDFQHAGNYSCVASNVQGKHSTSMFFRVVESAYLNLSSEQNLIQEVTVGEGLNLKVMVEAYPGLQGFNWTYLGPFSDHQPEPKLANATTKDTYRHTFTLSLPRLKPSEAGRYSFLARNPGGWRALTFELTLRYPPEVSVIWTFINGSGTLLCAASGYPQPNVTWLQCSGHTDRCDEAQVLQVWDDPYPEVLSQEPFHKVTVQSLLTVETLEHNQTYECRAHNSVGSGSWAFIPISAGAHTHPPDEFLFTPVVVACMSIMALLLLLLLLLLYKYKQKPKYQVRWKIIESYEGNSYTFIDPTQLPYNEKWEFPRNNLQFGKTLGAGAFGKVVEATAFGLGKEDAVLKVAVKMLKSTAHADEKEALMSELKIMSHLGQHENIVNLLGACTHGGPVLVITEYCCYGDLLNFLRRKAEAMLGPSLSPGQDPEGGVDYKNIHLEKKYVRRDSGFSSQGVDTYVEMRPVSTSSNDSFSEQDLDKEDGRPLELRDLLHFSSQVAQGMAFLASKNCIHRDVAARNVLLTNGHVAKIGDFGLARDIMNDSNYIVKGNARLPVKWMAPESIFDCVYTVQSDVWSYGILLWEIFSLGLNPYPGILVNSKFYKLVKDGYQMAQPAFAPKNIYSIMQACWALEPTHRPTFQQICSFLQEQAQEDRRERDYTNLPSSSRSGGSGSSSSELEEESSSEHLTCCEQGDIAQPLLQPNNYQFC

Kd (CSF1R (human)) | Kinase Specificity (S10) [1] | Compound | IC50 (M-NFS-60 cells) | CSF1R Cell Proliferation (M-NFS-60) IC50 (nM) (M-NFS-60 cells)
3 to 10 nM | B (0.03 < B ≦ 0.05) | CN1C(C)(C)CC(Oc2ccc(C(=O)Nc3ccc(NC(=O)Nc4cc(C(C)(C)C(F)(F)F)on4)cc3)nc2)CC1(C)C | ≤ 100 nM | 
< 3 nM | C (C > 0.05) | CN1C(C)(C)CC(Oc2ccc(C(=O)Nc3ccc(NC(=O)Nc4cc(C(C)(C)C)on4)cc3)nn2)CC1(C)C | 250 to 1000 nM | 
< 3 nM | C (C > 0.05) | CN1C(C)(C)CC(C)(Oc2ccc(C(=O)Nc3ccc(NC(=O)Nc4cc(C(C)(C)C)on4)cc3)nc2)CC1(C)C | ≤ 100 nM | 
3 to 10 nM | A (A ≦ 0.03) | COc1cc(NC(=O)c2ccc(OC3CC(C)(C)N(C)C(C)(C)C3)cn2)ccc1NC(=O)Nc1cc(C(C)(C)C)on1 | > 1000 nM | 
3 to 10 nM | B (0.03 < B ≦ 0.05) | CN1C(C)(C)CC(Oc2ccc(C(=O)Nc3ccc(NC(=O)Nc4cc(C(C)(C)C)nn4C)cc3)nc2)CC1(C)C | 100 to 250 nM | 
< 3 nM | C (C > 0.05) | CC(C)N1CC[C@H](Oc2ccc(C(=O)Nc3ccc(NC(=O)Nc4cc(C(C)(C)C)on4)cc3)nc2)C1 | ≤ 100 nM | 
< 3 nM | C (C > 0.05) | CN1C(C)(C)CC(Oc2ccc(C(=O)Nc3ccc(NC(=O)Nc4cc(C(F)(F)F)n(C)n4)cc3)nc2)CC1(C)C | 250 to 1000 nM | 
3 to 10 nM | C (C > 0.05) | Cc1cc(NC(=O)Nc2cc(C(C)(C)C)on2)ccc1NC(=O)c1ccc(OC2CC(C)(C)N(C)C(C)(C)C2)cn1 | > 1000 nM | 
> 10 nM | C (C > 0.05) | CN1C(C)(C)CC(Oc2ccc(C(=O)Nc3cccc(CNC(=O)Nc4cc(C(C)(C)C)on4)c3)nc2)CC1(C)C | > 1000 nM | 
< 3 nM | A (A ≦ 0.03) | CCN1C(C)(C)CC(Oc2ccc(C(=O)Nc3ccc(NC(=O)Nc4cc(C(C)(C)C)on4)cc3)nc2)CC1(C)C | ≤ 100 nM | 
< 3 nM | B (0.03 < B ≦ 0.05) | Cc1cc(NC(=O)c2ccc(OC3CC(C)(C)N(C)C(C)(C)C3)cn2)ccc1NC(=O)Nc1cc(C(C)(C)C)on1 | 100 to 250 nM | 
3 to 10 nM | B (0.03 < B ≦ 0.05) | CN1C(C)(C)CC(Oc2ccc(C(=O)Nc3ccc(NC(=O)Nc4cc(C(C)(C)C)no4)cc3)nc2)CC1(C)C | ≤ 100 nM | 
< 3 nM | C (C > 0.05) | CC(C)N1CC[C@@H](COc2ccc(C(=O)Nc3ccc(NC(=O)Nc4cc(C(C)(C)C)on4)cc3)nc2)C1 | ≤ 100 nM | 
< 3 nM | B (0.03 < B ≦ 0.05) | CN(C)C(=O)CN1CCC(Oc2ccc(C(=O)Nc3ccc(NC(=O)Nc4cc(C(C)(C)C)on4)cc3)nc2)C1 (stereo not shown) | ≤ 100 nM | 
< 3 nM | C (C > 0.05) | CC(C)(C)c1cc(NC(=O)Nc2ccc(NC(=O)c3ccc(OC4CCN(CCS(C)(=O)=O)C4)cn3)cc2)no1 (stereo not shown) | ≤ 100 nM | 
3 to 10 nM | B (0.03 < B ≦ 0.05) | CN1C(C)(C)CC(Oc2cnc(C(=O)Nc3ccc(NC(=O)Nc4cc(C(C)(C)C)on4)cc3)cn2)CC1(C)C | 100 to 250 nM | 
< 3 nM | A (A ≦ 0.03) | CN1C(C)(C)CC(=O)C(c2ccc(C(=O)Nc3ccc(NC(=O)Nc4cc(C(C)(C)C)on4)cc3)nc2)C1(C)C (stereo not shown) | 100 to 250 nM | 
3 to 10 nM | B (0.03 < B ≦ 0.05) | CN1C(COc2ccc(C(=O)Nc3ccc(NC(=O)Nc4cc(C(C)(C)C)on4)cc3)nc2)CCC1(C)C (stereo not shown) | ≤ 100 nM | 
< 3 nM | C (C > 0.05) | CC(C)N1CCC(Oc2ccc(C(=O)Nc3ccc(NC(=O)Nc4cc(C(C)(C)C(F)(F)F)on4)cc3)nc2)CC1 | ≤ 100 nM | 
< 3 nM | C (C > 0.05) | CC(C)N1CC[C@@H](Oc2ccc(C(=O)Nc3ccc(NC(=O)Nc4cc(C(C)(C)C)on4)cc3)nc2)C1 | ≤ 100 nM | 

The remaining lines, values behind:

Compound | Kd (CSF1R (human)) | Kinase Specificity (S10) [1] | IC50 (M-NFS-60 cells) | CSF1R Cell Proliferation (M-NFS-60) IC50 (nM) (M-NFS-60 cells)
CCN1CCC(Oc2ccc(C(=O)Nc3ccc(NC(=O)Nc4cc(C(C)(C)C)no4)cc3)nc2)CC1 | 3 to 10 nM | B (0.03 < B ≦ 0.05) | ≤ 100 nM | 
CC(C)N1CCC(Oc2ccc(C(=O)Nc3ccc(NC(=O)Nc4cc(C(C)(C)C)no4)cc3)nc2)CC1 | 3 to 10 nM | B (0.03 < B ≦ 0.05) | ≤ 100 nM | 
CC1(C)CC(Oc2ccc(C(=O)Nc3ccc(NC(=O)Nc4cc(C(C)(C)C)on4)cc3)nc2)CC(C)(C)N1 |  | C (C > 0.05) |  | 
CN1C(C)(C)CC(Oc2ccc(C(=O)Nc3ccc(NC(=O)Nc4cc(C(C)(C)C)on4)cc3)nc2)CC1(C)C |  | C (C > 0.05) |  | 
CC(C)(C)c1cc(NC(=O)Nc2ccc(NC(=O)c3ccc(OC[C@H]4CCCN5CCCC[C@@H]45)cn3)cc2)no1 | < 3 nM | C (C > 0.05) | ≤ 100 nM | 
CC(C)(C)c1cc(NC(=O)Nc2ccc(NC(=O)c3ccc(OC4CCNCC4)cn3)cc2)no1 |  | C (C > 0.05) |  | 
CN1CCN(Cc2ccc(C(=O)Nc3ccc(NC(=O)Nc4cc(C(C)(C)C)on4)cc3)nc2)CC1 |  | A (A ≦ 0.03) |  | 
CCN1CCC(Oc2ccc(C(=O)Nc3ccc(NC(=O)Nc4cc(C(C)(C)F)no4)cc3)nc2)CC1 | < 3 nM | A (A ≦ 0.03) |  | A/B
CCN1CCC(Oc2ccc(C(=O)Nc3ccc(NC(=O)Nc4cc(C(C)(C)C)on4)cc3)nc2)CC1 |  | C (C > 0.05) |  | 
CC(C)(C)c1cc(NC(=O)Nc2ccc(NC(=O)c3ccc(OC4CCN(C5CC5)CC4)cn3)cc2)no1 |  | A (A ≦ 0.03) |  | 
CC(C)(C)c1cc(NC(=O)Nc2ccc(NC(=O)c3cc(OC4CCNCC4)ccn3)cc2)no1 |  | B (0.03 < B ≦ 0.05) |  | 
CCN1CCC(c2ccc(C(=O)Nc3ccc(NC(=O)Nc4cc(C(C)(C)C)on4)cc3)nc2)CC1 |  | B (0.03 < B ≦ 0.05) |  | 
CC(C)(C)c1cc(NC(=O)Nc2ccc(NC(=O)c3ccc(OC4CN5CCC4CC5)cn3)cc2)no1 (stereo not shown) | < 3 nM | C (C > 0.05) | ≤ 100 nM | 
CCN1CCC(Cc2ccc(C(=O)Nc3ccc(NC(=O)Nc4cc(C(C)(C)C)on4)cc3)nc2)CC1 |  | B (0.03 < B ≦ 0.05) |  | 
CC(C)(C)c1cc(NC(=O)Nc2ccc(NC(=O)c3ccc(OC4CCN(CC(F)(F)F)CC4)cn3)cc2)no1 |  | A (A ≦ 0.03) |  | 
CC(C)N1CCC(Oc2ccc(C(=O)Nc3ccc(NC(=O)Nc4cc(C(C)(C)C)on4)cc3)nc2)CC1 |  | B (0.03 < B ≦ 0.05) |  | 
CCN1CCC(Oc2ccnc(C(=O)Nc3ccc(NC(=O)Nc4cc(C(C)(C)C)on4)cc3)c2)CC1 |  | B (0.03 < B ≦ 0.05) |  | 
CC(C)(C)c1cc(NC(=O)Nc2ccc(NC(=O)c3ccc(OC4CCN(C(C)(C)C)CC4)cn3)cc2)no1 |  | B (0.03 < B ≦ 0.05) |  | 
